# Test results taken from patent US6458797B1, “Methods for remodeling neuronal and cardiovascular pathways” (Queen's University of Kingston, priority 1998, dated 2002).
# Tests used:
# [1] = test system: spontaneously hypertensive rats (SHR); assay: Structurally-based vascular resistance in perfused vascular bed of SHR after 1 or 2 weeks of drug treatment; assay type: in vivo, rat; conditions: for Slope Flow Pressure: control 7.13 ± 0.63; for Maximum Constriction With Cocktail “Yield”: control 381 ± 21
# Method: Penile perfusion preparations were made using the procedure established by Banting, J. D., et al., “Isolation and Perfusion of the Pudendal Vasculature in Male Rats. J Urol., 2: 587-590 (1995). A heated chamber served to maintain the ambient temperature and the entire preparation at 37-38° C. The perfusate was held in a reservoir and passed through a heating and a bubble trapping/mixing chamber connected to a single peristaltic pump (Minipuls 2 Pump, Gilson, Inc., 3000 W. Beltline Highway, Middleton, Wis. USA 53562). An injection port was located distal to the pump for the introduction of pharmacological agents to minimize dead volume. Drugs were administered via a Harvard Apparatus, Inc. infusion pump (Harvard Apparatus, Inc., 84 October Hill Road, Holliston, Mass. 01746). The perfusate was a Tyrode-dextran solution consisting of a mixture of 20 mg of KCI, 32.3mg of CaCl2.H2O, 5.1 mg of MgCl2.6H2O, 6.2 mg of NaH2PO4.2H2O, 155 mg of NaHCO3, 100 mg of glucose, and 800 mg of NaCl in each 100 mL of fluid. The solution was maintained at pH 7.4, and a temperature of 37-39° C., and oxygenated with 95% O2 and 5% CO2. The rats were anaesthetized (sodium pentobarbital 60 mg/kg body weight i.p.) and heparinized (1000 IU/kg, i.v.). The bilateral isolation of penile vasculature was achieved by ligating all of the branching arteries except for the pudendal; then the abdominal aorta was cannulated proximal to the iliac bifurcation with a single lumen catheter. The catheter was connected to the perfusion apparatus via a pressure transducer for arterial pressure recording. After sectioning the vena cava and spinal cord to remove venous resistance and to eliminate neural influences, a flow of perfusate (1 mL/min per kg body weight) through the abdominal cannula was initiated. The perfusion pressure was continuously recorded on a data acquisition system (MacLab, AD Instruments, Houston, Tex.). The perfusate was infused for twenty minutes to flush the penile vasculature of blood and obtain a stable pressure before the beginning of any experiment. Following this, sodium nitroprusside (20 μg/mL) was infused to induce maximum vasodilation. The flow rate-perfusion/pressure relationship was determined by measuring the pressure at minimum vascular resistance at flow rates of 0.5, 1.0, 2.0, 4.0 mL/min per kg of body weight. A cumulative α1-adrenoreceptor concentration-response curve to methoxamine (2.5, 5, 10, 25, 50 μg/mL was then generated. Each concentration of methoxamine was infused for a duration of 10 minutes, at which time a plateau was reached. Subsequently, a continuous injection of a cocktail containing a supramaximal concentration of vasoconstrictors (vasopressin, 20.5 μg/mL, angiotensin-II, 200 ng/mL; methoxamine, 64 μg/mL; Sigma, St. Louis, Mo., 63178) was given to ensure that maximum constrictor response that was not dependent upon the activation of a single receptor type was achieved. A second injection of the constrictor cocktail was administered to ensure the tissue “yield” was maximum constriction. […] At the end of the concentration-response relationship, the aorta was cut distal to the catheter, and a baseline flow-pressure curve was recorded again. This was done to ensure that pressure fell to zero and to account for any false pressure readings that may have resulted due to movement of the catheter during the experiment.
# The hindlimb perfusion preparation was adopted from a technique originally designed by Folkow et al., Acta Physiol Scand., 80: 93-106 (1973), as modified by Adams et al., Hypertension, 14: 191-202 (1989). The perfusion experiment was performed as described above. Drugs were administered into the mixing chamber via a Harvard Apparatus infusion pump. The rats were anaesthetized (Inactin, 100 mg/kg of body weight, i.p.) and heparinized (1000 IU/kg of body weight, i.v.).
# [2] = test system: spontaneously hypertensive rats (SHR); assay: Left ventricle weight of SHR after 1 or 2 weeks of drug treatment; assay type: in vivo, rat; conditions: for Left Ventricle Weight (g)/Body Weight (kg) Ratio: control 2.46 ± 0.08
# Method: Following this treatment, structurally-based resistance to blood flow in the perfused penile vascular bed and hindlimb vascular bed models were measured using the methods detailed above. […] The animal hearts were excised and weighed.
# [3] = test system: α1-adrenoreceptor; assay: Penile vascular bed perfusion, cumulative α1-adrenoreceptor concentration-response curve to methoxamine; parameters: species or system rat; conditions: mean ± SD; for Slope Methoxamine: steepest slope of concentration-response curve
# Method: Male spontaneously hypertensive (SH) rats weighing between 246-313 g, and normotensive Sprague-Dawley (SD) rats weighing between 246-440 g were obtained from Charles River Laboratories (Montreal, Quebec, Canada). The animals were maintained in individual cages with a 12 hour light/12 hour dark cycle, and a room temperature of 22-24° C. They were provided with standard rodent chow and tap water ad libitum and were acclimated to the room for at least two days before the experiments. All procedures were carried out in accordance with the guidelines set out by the Canadian Council on Animal Care.
# Penile perfusion preparations were made using the procedure established by Banting, J. D., et al., “Isolation and Perfusion of the Pudendal Vasculature in Male Rats. J Urol., 2: 587-590 (1995). A heated chamber served to maintain the ambient temperature and the entire preparation at 37-38° C. The perfusate was held in a reservoir and passed through a heating and a bubble trapping/mixing chamber connected to a single peristaltic pump (Minipuls 2 Pump, Gilson, Inc., 3000 W. Beltline Highway, Middleton, Wis. USA 53562). An injection port was located distal to the pump for the introduction of pharmacological agents to minimize dead volume. Drugs were administered via a Harvard Apparatus, Inc. infusion pump (Harvard Apparatus, Inc., 84 October Hill Road, Holliston, Mass. 01746). The perfusate was a Tyrode-dextran solution consisting of a mixture of 20 mg of KCI, 32.3mg of CaCl2.H2O, 5.1 mg of MgCl2.6H2O, 6.2 mg of NaH2PO4.2H2O, 155 mg of NaHCO3, 100 mg of glucose, and 800 mg of NaCl in each 100 mL of fluid. The solution was maintained at pH 7.4, and a temperature of 37-39° C., and oxygenated with 95% O2 and 5% CO2. The rats were anaesthetized (sodium pentobarbital 60 mg/kg body weight i.p.) and heparinized (1000 IU/kg, i.v.). The bilateral isolation of penile vasculature was achieved by ligating all of the branching arteries except for the pudendal; then the abdominal aorta was cannulated proximal to the iliac bifurcation with a single lumen catheter. The catheter was connected to the perfusion apparatus via a pressure transducer for arterial pressure recording. […] The perfusion pressure was continuously recorded on a data acquisition system (MacLab, AD Instruments, Houston, Tex.). […] The flow rate-perfusion/pressure relationship was determined by measuring the pressure at minimum vascular resistance at flow rates of 0.5, 1.0, 2.0, 4.0 mL/min per kg of body weight. […] At the end of the concentration-response relationship, the aorta was cut distal to the catheter, and a baseline flow-pressure curve was recorded again. […]
# [4] = test system: α1-adrenoreceptor; assay: Hindlimb vascular bed perfusion, cumulative α1-adrenoreceptor concentration-response curve to methoxamine; parameters: species or system rat; conditions: mean ± SD
# Method: Male spontaneously hypertensive (SH) rats weighing between 246-313 g, and normotensive Sprague-Dawley (SD) rats weighing between 246-440 g were obtained from Charles River Laboratories (Montreal, Quebec, Canada). The animals were maintained in individual cages with a 12 hour light/12 hour dark cycle, and a room temperature of 22-24° C. They were provided with standard rodent chow and tap water ad libitum and were acclimated to the room for at least two days before the experiments. All procedures were carried out in accordance with the guidelines set out by the Canadian Council on Animal Care. The hindlimb perfusion preparation was adopted from a technique originally designed by Folkow et al., Acta Physiol Scand., 80: 93-106 (1973), as modified by Adams et al., Hypertension, 14: 191-202 (1989). The perfusion experiment was performed as described above. Drugs were administered into the mixing chamber via a Harvard Apparatus infusion pump. […] Following a midline abdominal incision, the abdominal aorta was cannulated proximal to the iliac bifurcation with a double lumen catheter (Storz, St Louis, Mo., USA), and the catheter was extended down the right common iliac artery. One lumen of the catheter was connected to the perfusion apparatus, while the other was connected to a pressure transducer for arterial pressure recording. […] A cumulative α1-adrenoreceptor concentration-response curve to methoxamine (0.5, 1, 2, 4, 8, 16, 32, 64 μg/mL) was then generated. […] Subsequently, a bolus injection of a cocktail containing a supramaximal concentration of vasoconstrictors was given as above. At the end of the concentration-response relationship, the iliac artery was cut distal to the catheter, and the flow pressure curve was monitored again. Flow rates for the hindlimb perfusion experiments were determined based on expected flow rates of exercising skeletal muscle at maximum dilation. […] All values in the figures and tables were expressed as mean ± standard deviation. Results comparing penile and hindlimb vasculature were analyzed using the Student's t-test. […]
# [5] = SHR, enalapril 30 mg/kg per day, 2-week period of treatment, versus control
# [6] = SHR-E1: enalapril 30 mg/kg per day, 1 week, n = 5
# [7] = SHR-E2: enalapril 30 mg/kg per day, 2 weeks, n = 7
# [8] = SHR-H: hydralazine 45 mg/kg per day, n = 7
smiles,measurement,setting,value
CCOC(=O)[C@H](CCc1ccccc1)N[C@@H](C)C(=O)N1CCC[C@H]1C(=O)O [enalapril],decrease of “yield” value,[1]; [5],12.1%±6.0%
same,Slope Flow Pressure,[1]; [6],6.10 ± 1.5
same,Maximum Constriction With Cocktail “Yield”,[1]; [6],358 ± 20 mm Hg
same,Slope Flow Pressure,[1]; [7],6.45 ± 1.31
same,Maximum Constriction With Cocktail “Yield”,"[1]; SHR-E2: enalapril 30 mg/kg per day, 2 weeks, n = 7, vasopressin, angiotensin-II, methoxamine cocktail",335 ± 23 mm Hg
same,decrease of left ventricular mass,[2]; [5],13.6%±3.2%
same,Left Ventricle Weight (g)/Body Weight (kg) Ratio,[2]; [6],2.17 ± 0.05 g/kg
same,Left Ventricle Weight (g)/Body Weight (kg) Ratio,[2]; [7],2.13 ± 0.08 g/kg
NNc1nncc2ccccc12 [hydralazine],decrease of “yield” point,"[1]; SHR, hydralazine 45 mg/kg per day, versus control",7.3%±2.9%
same,Slope Flow Pressure,[1]; [8],6.63 ± 0.86
same,Maximum Constriction With Cocktail “Yield”,[1]; [8],353 ± 11 mm Hg
same,decrease of left ventricular weight,"[2]; SHR, hydralazine 45 mg/kg per day, versus control, no significant effect",3.7%±5.0%
same,Left Ventricle Weight (g)/Body Weight (kg) Ratio,[2]; [8],2.37 ± 0.12 g/kg
COc1ccc(OC)c(C(O)C(C)N)c1 (centres unmarked) [methoxamine],Maximum Constriction With Methoxamine,"[3]; SD (normotensive Sprague-Dawley), methoxamine 50 μg/mL",171 ± 36 mm Hg
same,Slope Methoxamine,[3]; SD,2.03±0.68
same,Maximum Constriction With Methoxamine,"[3]; SHR, perfusion pressure at supramaximal methoxamine 50 μg/mL",172±32 mm Hg
same,Slope Methoxamine,[3]; SHR,1.64±0.21
same,Maximum Constriction With Methoxamine,"[4]; SD, methoxamine 64 μg/mL",191 ± 55 mm Hg
same,Slope Methoxamine,"[4]; SD, steepest slope of concentration-response curve",3.0±0.99
same,Maximum Constriction With Methoxamine,"[4]; SHR, perfusion pressure at supramaximal methoxamine 64 μg/mL",253±25 mm Hg
